“Also recorded” adds a separate entry of the source.
Assays:
[1] = test system: rabbit nasal cavity; assay: Acute toxicological study, rabbit nasal cavity 10 minutes after intranasal application; format: in vivo; conditions: for Microscopic Observations (Left Cavity): Table 8, individual rabbit
Experimental: This study was conducted in order to observe acute changes in the rabbit nasal cavity after a single dose of vehicle in each nasal cavity.
16 rabbits were randomized into 4 groups of 4 rabbits each. 3 groups received a single intranasal application of one of the test vehicles, 50 μl into each nasal cavity. Each rabbit received only one test compound. One group served as a control receiving the same volume of isotonic sodium chloride saline. 10 minutes after application the rabbits were sacrificed and bled. The right nasal cavity was then opened and evaluated macroscopically. The evaluator was blind as to the dosing scheme. The left nasal cavity was dissected and fixed in neutral buffered formalin for histological evaluation.

[2] = Plasma clonazepam after intranasal administration in vehicle B (Example 2); format: in vivo, New Zealand White rabbits
Experimental: 50 μl of his preparation was administered into each nasal cavity of male New Zealand White rabbits, held in a supine position during and 1 minute after the application. An Eppendorph pipette was used for the application.

[3] = Volume of aqueous solution needed to dissolve clinically relevant dose; format: physicochemical
[4] = test system: rabbits; assay: Pharmacodynamic response, enhanced by GF (Example 3); conditions: intranasal 0.25 mg clonazepam in 100 μl
Experimental: The pharmacodynamic response was tested in New Zealand White rabbits after application of 50 μl of 2.5 mg clonazepam/ml vehicle into each nostril while they were in sitting position. […] Clonazepam was dissolved by ultrasonification.

[5] = intranasal, adults; cited from earlier work
[6] = test system: children; conditions: intranasal, 45 children; cited from earlier work
[7] = nasal gel, rats; cited from earlier work
[8] = test system: blood glucose level; assay: Blood glucose after intranasal glucagon in hypoglycaemic rabbits (Example 5); format: in vivo, New Zealand White rabbits
Experimental: 4 mg human glucagon in 100 μl phosphate buffer (pH 4) containing 5% GF was applied into both nostrils (50 μl into each) of 5 sitting hypoglycaemic New Zealand White rabbits, weighing about 3 kg. The formulation was prepared by dissolving glucagon in a 7 mM phosphate buffer (pH 2.5), adjusting the pH to 4.0 with 0.1N sodium hydroxide and finally 5% glycofurolum 75 was added. The rabbits were made hypoglycaemic by subcutaneous injection of […] insulin one hour prior to the experiment. Blood samples were continuously withdrawn from the marginal ear vein for blood glucose determination.

[9] = test system: blood glucose level; assay: Blood glucose after intranasal insulin (Example 4); format: in vivo, New Zealand White rabbits; conditions: rabbits
Experimental: 0.33 mg zinc-free (monomeric) human insulin in 50 μl 12.5 mM phosphate buffer (pH 7.4) containing 5% glycofurol 75 was applied into one nostril of 5 sitting New Zealand White rabbits, weighing about 3 kg. Blood samples of 50 μl were withdrawn from the marginal ear vein after 0, 15, 30, 60 and 120 minutes, and blood glucose level was determined.

In the case of CC(O)CO (stereo not shown) [Propylene glycol (PG), propylene glycol], the “Microscopic Observations (Left Cavity)” value ([1]; Level 1) is reported as “Edema and congestion”, the “Microscopic Observations (Left Cavity)” value ([1]; Level 2) is reported as “Congestion” and the “Microscopic Observations (Left Cavity)” value ([1]; Level 3) is reported as “Lymphoid aggregates; also recorded: Dilatation of venules”. For the same compound, the “Microscopic Observations (Left Cavity)” value ([1]; Level 4) was “Area of chronic inflammation” and the “Microscopic Results (Left side)” value ([1]; Table 9 summary, 10 minutes after application, per animal) was “Focal haemorrhage”.
With O=C1CN=C(c2ccccc2Cl)c2cc([N+](=O)[O-])ccc2N1 [clonazepam] the “plasma concentration versus i.v. injection (in words)” value ([2]; 0.5 mg, at about 2 minutes) was “about the same or even higher, at about 2 minutes, than for an i.v. injection”, the “plasma concentration after 2 1/2 minutes, % of i.v. (CpL(21/2 min))” value ([2]; FIG. 1) was “about 100%” and the Tmax ([2]; rabbit, plasma, 0.5 mg, FIG. 1, read-out: peak clonazepam plasma concentration (tmax)) was 2 to 3 min. For the same compound, the “volume of aqueous solution to dissolve clinically relevant dose” value [3] was greater than 10 mL and the “time to pharmacodynamic response” value [4] was “less than 2 minutes”.
In the case of CN1C(=O)CN=C(c2ccccc2)c2cc(Cl)ccc21 [diazepam], the “peak concentration with reference to i.v. administration” value [5] is listed as “about 27%”.
In the case of O=C1Nc2ccc(Cl)cc2C(c2ccccc2Cl)=NC1O (stereo not shown) [lorazepam], the “time to peak concentration” value [5] is given as 2.3 h.
For Cc1ncc2n1-c1ccc(Cl)cc1C(c1ccccc1F)=NC2 [midazolam], the “adverse reaction (in words)” value [6] is given as “coughing and sneezing with expulsion of part of the dose”.
For COC(=O)C1=C(C)NC(C)=C(C(=O)OC)C1c1ccccc1[N+](=O)[O-] [nifedipine], the “plasma peak concentration compared with intravenous administration” value [7] is given as no more than 10%.
For “glucagon: human glucagon in phosphate buffer (pH 4) containing 5% GF”, the “pronounced biological response (blood glucose), time after application” value [8] was 15-30 minutes.
With “insulin: zinc-free (monomeric) human insulin in phosphate buffer (pH 7.4) containing 5% glycofurol 75” the “pronounced biological response (blood glucose), time after application” value [9] was 15-30 minutes.

Source: US5693608A, “Method of administering a biologically active substance” (Bechgaard International Research and Development A/S, priority 1990, dated 1997)
